Assay results published in PubChem BioAssay AID192 (DTP/NCI, 2004).
Several values for one entry are separate records, joined by “and”; a condition that tells them apart may be missing. Equal entries are not always repeated. Inconclusive results and toxic doses are left out.

System: BDF1 mice, B16 melanoma ip, median survival T/C
Test: NCI In Vivo Anticancer Drug Screen. Data for tumor model B16 Melanoma (intraperitoneal) in B6D2F1 (BDF1) mice
Conditions: endpoint: median survival time, higher = longer survival
Procedure, shortened: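 Compounds were tested in mice carrying transplantable tumors. Survival or tumor size was recorded, and each value is the treated-group measurement (T) divided by that of the vehicle-treated control group (C).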

[1] = dose: 12.5 mg/kg/injection, schedule: Q04DX003 (ip), vehicle: saline with Tween-80
[2] = dose: 50.0 mg/kg/injection, schedule: Q04DX003 (ip), vehicle: saline
[3] = dose: 100.0 mg/kg/injection, schedule: Q01DX009 (ip), vehicle: Klucel (hydroxypropylcellulose) (HPC)
[4] = dose: 200.0 mg/kg/injection, schedule: Q01DX009 (ip), vehicle: Klucel (hydroxypropylcellulose) (HPC)
[5] = dose: 400.0 mg/kg/injection, schedule: Q01DX009 (ip), vehicle: Klucel (hydroxypropylcellulose) (HPC)
[6] = dose: 3.12 mg/kg/injection, schedule: Q01DX009 (ip), vehicle: saline
[7] = dose: 6.25 mg/kg/injection, schedule: Q01DX009 (ip), vehicle: saline
[8] = dose: 12.5 mg/kg/injection, schedule: Q01DX009 (ip), vehicle: saline
[9] = dose: 25.0 mg/kg/injection, schedule: Q01DX009 (ip), vehicle: saline
[10] = dose: 12.5 mg/kg/injection, schedule: Q01DX009 (ip), vehicle: saline with Tween-80
[11] = dose: 25.0 mg/kg/injection, schedule: Q01DX009 (ip), vehicle: saline with Tween-80
[12] = dose: 50.0 mg/kg/injection, schedule: Q01DX009 (ip), vehicle: saline with Tween-80
[13] = dose: 25.0 mg/kg/injection, schedule: Q01DX009 (ip), vehicle: Klucel (hydroxypropylcellulose) (HPC)
[14] = dose: 100.0 mg/kg/injection, schedule: Q01DX009 (ip), vehicle: saline with Tween-80
[15] = dose: 200.0 mg/kg/injection, schedule: Q01DX009 (ip), vehicle: saline with Tween-80
[16] = dose: 400.0 mg/kg/injection, schedule: Q01DX009 (ip), vehicle: saline with Tween-80
[17] = dose: 50.0 mg/kg/injection, schedule: Q01DX009 (ip), vehicle: Klucel (hydroxypropylcellulose) (HPC)
[18] = dose: 100.0 mg/kg/injection, schedule: Q01DX009 (ip), vehicle: saline
[19] = dose: 400.0 mg/kg/injection, schedule: Q01DX009 (ip), vehicle: saline
[20] = dose: 12.5 mg/kg/injection, schedule: Q04DX003 (ip), vehicle: saline
[21] = dose: 25.0 mg/kg/injection, schedule: Q04DX003 (ip), vehicle: saline

CC1(C)N=C(N)N=C(N)N1c1ccc(OCc2ccc(C(=O)Nc3cccc(S(=O)(=O)F)c3)cc2)c(Cl)c1
T/C [1]: 119 % of control
T/C [2]: 166 % of control

CC(=O)N(C(C)=O)C1=C(c2ccccc2)C(=O)c2ccccc21
T/C [3]: 100 % of control
T/C [4]: 97 % of control
T/C [5]: 97 % of control

CN1CCC(OC2c3ccccc3CCc3ccccc32)CC1
T/C [6]: 100 % of control
T/C [7]: 104 % of control
T/C [8]: 104 % of control
T/C [9]: 97 % of control

Nc1ccc(S(=O)(=O)N/N=C/c2ccccc2Cl)cc1
T/C [10]: 107 % of control
T/C [11]: 102 % of control
T/C [12]: 107 % of control

NNC(=O)c1ccc(Cl)cc1Cl
T/C (dose: 12.5 mg/kg/injection, schedule: Q01DX009 (ip), vehicle: Klucel (hydroxypropylcellulose) (HPC)): 100 % of control
T/C (dose: 12.5 mg/kg/injection, schedule: Q04DX003 (ip), vehicle: Klucel (hydroxypropylcellulose) (HPC)): 103 % of control
T/C [13]: 86 % of control
T/C (dose: 25.0 mg/kg/injection, schedule: Q04DX003 (ip), vehicle: Klucel (hydroxypropylcellulose) (HPC)): 93 % of control

O=C(CC(=Nc1ccccc1)c1ccccc1)c1ccccc1.O=C(CC(=Nc1ccccc1)c1ccccc1)c1ccccc1.[Cu]
T/C (dose: 6.25 mg/kg/injection, schedule: Q04DX003 (ip), vehicle: saline with Tween-80): 93 % of control
T/C [1]: 86 % of control
T/C (dose: 25.0 mg/kg/injection, schedule: Q04DX003 (ip), vehicle: saline with Tween-80): 91 % of control

O=c1oc2c(CN3CCCCC3)c(O)ccc2c2c1CCCC2
T/C (dose: 64.0 mg/kg/injection, schedule: Q01DX009 (ip), vehicle: Klucel (hydroxypropylcellulose) (HPC)): 112 % of control
T/C (dose: 128.0 mg/kg/injection, schedule: Q01DX009 (ip), vehicle: Klucel (hydroxypropylcellulose) (HPC)): 98 % of control
T/C (dose: 256.0 mg/kg/injection, schedule: Q01DX009 (ip), vehicle: Klucel (hydroxypropylcellulose) (HPC)): 106 % of control
T/C (dose: 512.0 mg/kg/injection, schedule: Q01DX009 (ip), vehicle: Klucel (hydroxypropylcellulose) (HPC)): 93 % of control

CCCC(=O)NC1=C(N2CC2)C(=O)C(NC(=O)CCC)=C(N2CC2)C1=O
T/C (dose: 1.0 mg/kg/injection, schedule: Q01DX009 (ip), vehicle: saline): 86 % of control
T/C (dose: 2.0 mg/kg/injection, schedule: Q01DX009 (ip), vehicle: saline): 118 % of control

CCCC1CC[N-]CC1.CCCC1CC[N-]CC1.CCCC1CC[N-]CC1.CCCC1CC[N-]CC1.CS(C)=O.CS(C)=O.[Cl-].[Cl-].[Cl-].[Cl-].[Cl][Rh][Cl].[Rh+3]
T/C (dose: 1.56 mg/kg/injection, schedule: Q01DX009 (ip), vehicle: water): 105 % of control
T/C (dose: 3.13 mg/kg/injection, schedule: Q01DX009 (ip), vehicle: water): 107 % of control
T/C (dose: 6.25 mg/kg/injection, schedule: Q01DX009 (ip), vehicle: water): 120 % of control
T/C (dose: 25.0 mg/kg/injection, schedule: Q01DX009 (ip), vehicle: water): 124 % of control

N=C(N)SCc1c2ccccc2c(CSC(=N)N)c2ccccc12
T/C [8]: 238 % of control
T/C [9]: 285 % of control

CC(C)CNN(CC(C)C)C(N)=O
T/C [14]: 111 % of control
T/C [15]: 86 % of control

C=C1CCN(c2ccc(F)cc2)C1=O
T/C (dose: 4.0 mg/kg/injection, schedule: Q01DX009 (ip), vehicle: saline + alcohol): 104 % of control
T/C (dose: 16.0 mg/kg/injection, schedule: Q01DX009 (ip), vehicle: saline + alcohol): 100 % of control
T/C (dose: 32.0 mg/kg/injection, schedule: Q01DX009 (ip), vehicle: saline + alcohol): 112 % of control
T/C (dose: 64.0 mg/kg/injection, schedule: Q01DX009 (ip), vehicle: saline + alcohol): 110 % of control

O=c1c(O)c(-c2ccccc2)oc2ccccc12
T/C [14]: 94 % of control
T/C [15]: 96 % of control
T/C [16]: 91 % of control
T/C (dose: 800.0 mg/kg/injection, schedule: Q01DX009 (ip), vehicle: saline with Tween-80): 93 % of control

CCOC(=O)C(=Cc1ccc(C=C(C(=O)OCC)C(=O)OCC)cc1)C(=O)OCC
T/C [17]: 93 % of control
T/C [4]: 93 % of control

Cc1cc(C)c(CN)cc1CN
T/C [11]: 108 % of control
T/C [12]: 112 % of control

NC(N)=NC1=NC(=O)CS1
T/C (dose: 50.0 mg/kg/injection, schedule: Q04DX003 (ip), vehicle: saline with Tween-80): 102 % of control
T/C [3]: 93 % of control
T/C (dose: 100.0 mg/kg/injection, schedule: Q04DX003 (ip), vehicle: saline with Tween-80): 102 % of control
T/C [4]: 90 % of control
T/C (dose: 200.0 mg/kg/injection, schedule: Q04DX003 (ip), vehicle: saline with Tween-80): 100 % of control

COc1cc(NC(=O)CC(C)=O)cc(OC)c1OC
T/C [18]: 112 % of control
T/C (dose: 132.0 mg/kg/injection, schedule: Q01DX009 (ip), vehicle: saline with Tween-80): 100 % of control
T/C [15]: 95 % of control
T/C (dose: 300.0 mg/kg/injection, schedule: Q01DX009 (ip), vehicle: saline with Tween-80): 95 % of control
T/C [19]: 90 % of control

CN(C)CCCc1c2ccccc2nc2ccc(Cl)cc12
T/C [20]: 117 % of control
T/C [21]: 114 % of control
T/C [2]: 108 % of control

CNc1nc2c(N)ncnc2n1C1OC(CO)C(O)C1O (configuration not stated)
T/C (dose: 1.56 mg/kg/injection, schedule: Q01DX009 (ip), vehicle: saline): 94 % of control
T/C [6]: 90 % of control
T/C [7]: 95 % of control
T/C [8]: 101 % of control
T/C [9]: 101 % of control

Oc1ccc(C2CCc3ccccc32)cc1 (configuration not stated)
T/C [3]: 96 % of control
T/C [4]: 96 % of control
T/C [5]: 100 % of control

O=[N+]([O-])O.O=[N+]([O-])O.[O]=[Zr]
T/C [20]: 97 % of control
T/C [21]: 90 % of control
T/C [2]: 95 % of control

O=c1ncccn1[C@@H]1O[C@H](CO)[C@H](O)C1O (some centres not stated)
T/C [9]: 119 % of control
T/C (dose: 50.0 mg/kg/injection, schedule: Q01DX009 (ip), vehicle: saline): 115 % of control
T/C [19]: 166 % of control

O=C(Nc1ccccc1Cl)c1ccc([N+](=O)[O-])cc1
T/C [14]: 100 % of control
T/C [15]: 105 % of control
T/C [16]: 97 % of control

O=C(/C=C/C(=O)Oc1ccc(Cl)cc1Cl)Oc1ccc(Cl)cc1Cl
T/C [13]: 100 % of control
T/C [17]: 91 % of control
T/C [3]: 88 % of control and 94 % of control

NC(=O)NNc1ccc([N+](=O)[O-])cc1[N+](=O)[O-]
T/C [10]: 95 % of control
T/C [11]: 97 % of control
T/C [12]: 97 % of control

Cc1c2ccccc2cc2cc[n+]3ccccc3c12
T/C (dose: 3.75 mg/kg/injection, schedule: Q01DX009 (ip), vehicle: Klucel (hydroxypropylcellulose) (HPC)): 98 % of control
T/C (dose: 7.5 mg/kg/injection, schedule: Q01DX009 (ip), vehicle: Klucel (hydroxypropylcellulose) (HPC)): 98 % of control
T/C (dose: 15.0 mg/kg/injection, schedule: Q01DX009 (ip), vehicle: Klucel (hydroxypropylcellulose) (HPC)): 102 % of control

O=C(Cc1ccccc1)NC/C=N/O
T/C [12]: 107 % of control
T/C [14]: 102 % of control
T/C [15]: 93 % of control
T/C [16]: 100 % of control

COc1cc(C(=O)Nc2ccc(N(C)C)cc2)cc(OC)c1OC
T/C [20]: 119 % of control
T/C [2]: 116 % of control
T/C (dose: 200.0 mg/kg/injection, schedule: Q04DX003 (ip), vehicle: saline): 108 % of control

N#C/C(=C\c1ccncc1)c1csc2ccccc12
T/C [17]: 88 % of control
T/C [3]: 89 % of control

COc1cccc(NC(=O)Nc2ccccc2)c1
T/C [3]: 110 % of control
T/C [4]: 101 % of control
T/C [5]: 88 % of control

NC(C(=O)O)c1ccc(CBr)cc1 (configuration not stated)
T/C (dose: 12.5 mg/kg/injection, schedule: Q01DX009 (ip), vehicle: acid diluted with saline): 152 % of control
T/C (dose: 25.0 mg/kg/injection, schedule: Q01DX009 (ip), vehicle: acid diluted with saline): 157 % of control
T/C (dose: 100.0 mg/kg/injection, schedule: Q01DX009 (ip), vehicle: acid diluted with saline): 152 % of control
T/C (dose: 200.0 mg/kg/injection, schedule: Q01DX009 (ip), vehicle: acid diluted with saline): 157 % of control

CCN(C)CCN(C)CC
T/C [18]: 95 % of control
T/C (dose: 200.0 mg/kg/injection, schedule: Q01DX009 (ip), vehicle: saline): 109 % of control
